The test system of one assay is 317291-083-R-J1-PDC complex spheroids, viability. Description: Anticancer human tumor 317291-083-R-J1-PDC patient-derived soft tissue sarcoma cell line growth inhibition [GQUAD]. The settings on record: second compound 3.16 µM; first compound 0.1 µM; stronger effect = lower value. The method, boiled down:
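Tumor cells were grown as complex spheroids with HUVEC endothelial cells and mesenchymal stem cells as stroma. G-quadruplex stabilizers were combined with targeted agents over half-log dilutions from near the clinical Cmax, or from 10 microM.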
What is called viability, T/C is the result in the treated group divided by that in the control group, in per cent. As to `CCCS(=O)(=O)Nc1ccc(F)c(C(=O)c2c[nH]c3ncc(-c4ccc(Cl)cc4)cc23)c1F` + Cc1cnc(CNC(=O)c2c(=O)c3ccc(N4CCCN(C)CC4)nc3n3c2sc2ccccc23)cn1, the viability, T/C was 11.7%.

For the compound `O=C(c1cc(Cc2n[nH]c(=O)c3ccccc23)ccc1F)N1CCN(C(=O)C2CC2)CC1` + Cc1[nH]c2ccc(F)cc2c1-c1nc2c3cccnc3c3ncccc3c2[nH]1, the viability, T/C was 82.9%.

The assay is the same for the next values; noted with them: second compound 3.16 µM; first compound 0.316 µM; stronger effect = lower value.
For `COc1ncnc(C2CC2)c1-c1ncc2cnn(Cc3ccc(-c4nc(C(F)(F)F)cn4C(C)C)cc3)c2n1` + Cc1[nH]c2ccc(F)cc2c1-c1nc2c3cccnc3c3ncccc3c2[nH]1, the viability, T/C was 27.1%.

Regarding `CCCS(=O)(=O)Nc1ccc(F)c(C(=O)c2c[nH]c3ncc(-c4ccc(Cl)cc4)cc23)c1F` + Cc1cnc(CNC(=O)c2c(=O)c3ccc(N4CCCN(C)CC4)nc3n3c2sc2ccccc23)cn1, the viability, T/C is 10.6%.

In the case of `O=C(c1cc(Cc2n[nH]c(=O)c3ccccc23)ccc1F)N1CCN(C(=O)C2CC2)CC1` + Cc1[nH]c2ccc(F)cc2c1-c1nc2c3cccnc3c3ncccc3c2[nH]1, the viability, T/C is 72.8%.

Staying with this assay, now noted: second compound 3.16 µM; first compound 1 µM; stronger effect = lower value.
With `COc1ncnc(C2CC2)c1-c1ncc2cnn(Cc3ccc(-c4nc(C(F)(F)F)cn4C(C)C)cc3)c2n1` + Cc1[nH]c2ccc(F)cc2c1-c1nc2c3cccnc3c3ncccc3c2[nH]1, the viability, T/C is 23.3%.

As to `CCCS(=O)(=O)Nc1ccc(F)c(C(=O)c2c[nH]c3ncc(-c4ccc(Cl)cc4)cc23)c1F` + Cc1cnc(CNC(=O)c2c(=O)c3ccc(N4CCCN(C)CC4)nc3n3c2sc2ccccc23)cn1, the viability, T/C is 11.8%.

As for `O=C(c1cc(Cc2n[nH]c(=O)c3ccccc23)ccc1F)N1CCN(C(=O)C2CC2)CC1` + Cc1[nH]c2ccc(F)cc2c1-c1nc2c3cccnc3c3ncccc3c2[nH]1, the viability, T/C is 75.2%.

Still in this assay, the particulars now being: second compound 3.16 µM; first compound 3.16 µM; stronger effect = lower value.
Regarding `COc1ncnc(C2CC2)c1-c1ncc2cnn(Cc3ccc(-c4nc(C(F)(F)F)cn4C(C)C)cc3)c2n1` + Cc1[nH]c2ccc(F)cc2c1-c1nc2c3cccnc3c3ncccc3c2[nH]1, the viability, T/C is 23.2%.

On to `CCCS(=O)(=O)Nc1ccc(F)c(C(=O)c2c[nH]c3ncc(-c4ccc(Cl)cc4)cc23)c1F` + Cc1cnc(CNC(=O)c2c(=O)c3ccc(N4CCCN(C)CC4)nc3n3c2sc2ccccc23)cn1, for which the viability, T/C was 21.4%.

In the case of `O=C(c1cc(Cc2n[nH]c(=O)c3ccccc23)ccc1F)N1CCN(C(=O)C2CC2)CC1` + Cc1[nH]c2ccc(F)cc2c1-c1nc2c3cccnc3c3ncccc3c2[nH]1, the viability, T/C is 69.6%.

Staying with this assay, now noted: second compound 3.16 µM; first compound 10 µM; stronger effect = lower value.
On to `COc1ncnc(C2CC2)c1-c1ncc2cnn(Cc3ccc(-c4nc(C(F)(F)F)cn4C(C)C)cc3)c2n1` + Cc1[nH]c2ccc(F)cc2c1-c1nc2c3cccnc3c3ncccc3c2[nH]1, for which the viability, T/C was 30.5%.

`CCCS(=O)(=O)Nc1ccc(F)c(C(=O)c2c[nH]c3ncc(-c4ccc(Cl)cc4)cc23)c1F` + Cc1cnc(CNC(=O)c2c(=O)c3ccc(N4CCCN(C)CC4)nc3n3c2sc2ccccc23)cn1: the viability, T/C is 0.18%.

Regarding `O=C(c1cc(Cc2n[nH]c(=O)c3ccccc23)ccc1F)N1CCN(C(=O)C2CC2)CC1` + Cc1[nH]c2ccc(F)cc2c1-c1nc2c3cccnc3c3ncccc3c2[nH]1, the viability, T/C is 47.2%.

Staying with this assay, now noted: second compound 10 µM; first compound 0.0316 µM; stronger effect = lower value.
Take `COc1ncnc(C2CC2)c1-c1ncc2cnn(Cc3ccc(-c4nc(C(F)(F)F)cn4C(C)C)cc3)c2n1` + Cc1[nH]c2ccc(F)cc2c1-c1nc2c3cccnc3c3ncccc3c2[nH]1: the viability, T/C was 35.8%.

For `CCCS(=O)(=O)Nc1ccc(F)c(C(=O)c2c[nH]c3ncc(-c4ccc(Cl)cc4)cc23)c1F` + Cc1cnc(CNC(=O)c2c(=O)c3ccc(N4CCCN(C)CC4)nc3n3c2sc2ccccc23)cn1, the viability, T/C was 10.2%.

Turning to `O=C(c1cc(Cc2n[nH]c(=O)c3ccccc23)ccc1F)N1CCN(C(=O)C2CC2)CC1` + Cc1[nH]c2ccc(F)cc2c1-c1nc2c3cccnc3c3ncccc3c2[nH]1, the viability, T/C is 105%.

The assay is the same for the next values; noted with them: second compound 10 µM; first compound 0.1 µM; stronger effect = lower value.
On to `COc1ncnc(C2CC2)c1-c1ncc2cnn(Cc3ccc(-c4nc(C(F)(F)F)cn4C(C)C)cc3)c2n1` + Cc1[nH]c2ccc(F)cc2c1-c1nc2c3cccnc3c3ncccc3c2[nH]1, for which the viability, T/C is 35.8%.

With `CCCS(=O)(=O)Nc1ccc(F)c(C(=O)c2c[nH]c3ncc(-c4ccc(Cl)cc4)cc23)c1F` + Cc1cnc(CNC(=O)c2c(=O)c3ccc(N4CCCN(C)CC4)nc3n3c2sc2ccccc23)cn1, the viability, T/C was 6.4%.

Consider `O=C(c1cc(Cc2n[nH]c(=O)c3ccccc23)ccc1F)N1CCN(C(=O)C2CC2)CC1` + Cc1[nH]c2ccc(F)cc2c1-c1nc2c3cccnc3c3ncccc3c2[nH]1, for which the viability, T/C was 84.4%.

Staying with this assay, now noted: second compound 10 µM; first compound 0.316 µM; stronger effect = lower value.
In the case of `COc1ncnc(C2CC2)c1-c1ncc2cnn(Cc3ccc(-c4nc(C(F)(F)F)cn4C(C)C)cc3)c2n1` + Cc1[nH]c2ccc(F)cc2c1-c1nc2c3cccnc3c3ncccc3c2[nH]1, the viability, T/C is 31.1%.

With `CCCS(=O)(=O)Nc1ccc(F)c(C(=O)c2c[nH]c3ncc(-c4ccc(Cl)cc4)cc23)c1F` + Cc1cnc(CNC(=O)c2c(=O)c3ccc(N4CCCN(C)CC4)nc3n3c2sc2ccccc23)cn1, the viability, T/C was 24.3%.

With `O=C(c1cc(Cc2n[nH]c(=O)c3ccccc23)ccc1F)N1CCN(C(=O)C2CC2)CC1` + Cc1[nH]c2ccc(F)cc2c1-c1nc2c3cccnc3c3ncccc3c2[nH]1, the viability, T/C is 96.3%.

The same assay, now with this note: second compound 10 µM; first compound 1 µM; stronger effect = lower value.
In the case of `COc1ncnc(C2CC2)c1-c1ncc2cnn(Cc3ccc(-c4nc(C(F)(F)F)cn4C(C)C)cc3)c2n1` + Cc1[nH]c2ccc(F)cc2c1-c1nc2c3cccnc3c3ncccc3c2[nH]1, the viability, T/C is 33.8%.

As to `CCCS(=O)(=O)Nc1ccc(F)c(C(=O)c2c[nH]c3ncc(-c4ccc(Cl)cc4)cc23)c1F` + Cc1cnc(CNC(=O)c2c(=O)c3ccc(N4CCCN(C)CC4)nc3n3c2sc2ccccc23)cn1, the viability, T/C was 8.2%.

Regarding `O=C(c1cc(Cc2n[nH]c(=O)c3ccccc23)ccc1F)N1CCN(C(=O)C2CC2)CC1` + Cc1[nH]c2ccc(F)cc2c1-c1nc2c3cccnc3c3ncccc3c2[nH]1, the viability, T/C was 81.8%.

Staying with this assay, now noted: second compound 10 µM; first compound 3.16 µM; stronger effect = lower value.
In the case of `COc1ncnc(C2CC2)c1-c1ncc2cnn(Cc3ccc(-c4nc(C(F)(F)F)cn4C(C)C)cc3)c2n1` + Cc1[nH]c2ccc(F)cc2c1-c1nc2c3cccnc3c3ncccc3c2[nH]1, the viability, T/C was 33.5%.

For the compound `CCCS(=O)(=O)Nc1ccc(F)c(C(=O)c2c[nH]c3ncc(-c4ccc(Cl)cc4)cc23)c1F` + Cc1cnc(CNC(=O)c2c(=O)c3ccc(N4CCCN(C)CC4)nc3n3c2sc2ccccc23)cn1, the viability, T/C is 16.7%.

Turning to `O=C(c1cc(Cc2n[nH]c(=O)c3ccccc23)ccc1F)N1CCN(C(=O)C2CC2)CC1` + Cc1[nH]c2ccc(F)cc2c1-c1nc2c3cccnc3c3ncccc3c2[nH]1, the viability, T/C is 98%.

Still in this assay, the particulars now being: second compound 10 µM; first compound 10 µM; stronger effect = lower value.
Consider `COc1ncnc(C2CC2)c1-c1ncc2cnn(Cc3ccc(-c4nc(C(F)(F)F)cn4C(C)C)cc3)c2n1` + Cc1[nH]c2ccc(F)cc2c1-c1nc2c3cccnc3c3ncccc3c2[nH]1, for which the viability, T/C was 28.3%.

For the compound `CCCS(=O)(=O)Nc1ccc(F)c(C(=O)c2c[nH]c3ncc(-c4ccc(Cl)cc4)cc23)c1F` + Cc1cnc(CNC(=O)c2c(=O)c3ccc(N4CCCN(C)CC4)nc3n3c2sc2ccccc23)cn1, the viability, T/C is 8.36%.

Consider `O=C(c1cc(Cc2n[nH]c(=O)c3ccccc23)ccc1F)N1CCN(C(=O)C2CC2)CC1` + Cc1[nH]c2ccc(F)cc2c1-c1nc2c3cccnc3c3ncccc3c2[nH]1, for which the viability, T/C is 58.6%.
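Note: spheroids exposed to compounds for one week before readout; percent viability relative to DMSO vehicle wells taken as 100%.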
